The source of these data is patent publication US20140296153A1, “Oligodendrocyte Differentiation” (priority 2011, published 2014).

Structures are written as SMILES.

Holding throughout (type): cell-based, mouse
Series [1] deals with SVZ cells. The experiment in a line: BrdU cell proliferation study in SVZ cell cultures. The conditions noted are these: 48 hours, BrdU last 4 hours. Here is the method:
SVZ cell cultures were obtained from early postnatal (P1-3) C57B1/6 donor mice as described previously.
Brains were removed following decapitation and placed in HBSS solution (Gibco, Carlsbad, Calif., USA). Fragments of SVZ were dissected out of 450 μm thick coronal brain sections, digested in 0.025% trypsin and 0.265 mM EDTA (Gibco), and dissociated by gentle mixing. The cell suspension was diluted in serum-free culture medium (SFM) composed of Dulbecco's modified eagle medium (D-MEM/F12 Gluta-MAX™-I, Gibco) supplemented with 100 U/mL penicillin, 100 μg/mL streptomycin (Gibco), 1% B27 (Gibco), 10 ng/mL epidermal growth factor (EGF; Gibco), and 5 ng/mL basic fibroblast growth factor (FGF-2, Gibco). Single cells were then plated on uncoated Petri dishes at a density of 3000 cells/cm^2. […]
Fluorescence images were recorded using an LSM 510 Meta confocal microscope or an Axioskop 2 Plus fluorescence microscope (both from Carl Zeiss). […] Percentages of TUNEL or BrdU immunoreactive cells in SVZ cell cultures were calculated from cell counts in five independent microscopic fields in each coverslip with a x40 objective (approximately 200 cells per field). […] For SCCl experiments, the percentage of oligodendrocytic-like responding cells (with a Thromb/Hist ratio above 1.3) was calculated on the basis of one microscopic field per coverslip, containing approximately 100 cells (magnification, ×40). […]

Series [2] relates to SVZ cells. The series is described as follows: TUNEL apoptosis assay in SVZ cell cultures. Particulars: for TUNEL-positive nuclei: 48 hours. Here is the method: Six- to 8-day-old neurospheres were adhered for 48 hours onto poly-D-lysine-coated glass coverslips in SFM devoid of growth factors. Then, to evaluate proliferation/cell death and neuronal differentiation, the neurospheres were allowed to develop for 48 hours or 7 days at 37° C. in the absence or in the presence of hemopressin (100 nM or 1 μM, Proteimax, Cotia, Brazil) and the CB1R antagonist AM 251 (1 μM, Tocris, Ellisville, Mo., USA).
Cell apoptosis was evaluated by the terminal deoxynucleotidyl transferase dUTP nick-end labeling (TUNEL) assay which is a method that detects DNA fragmentation.
SVZ cells treated with Hp for 48 h, in serum free medium devoid of growth factor (differentiation conditions), were rinsed 3×10 min with 0.15 M PBS and permeabilized in 0.25% Triton X-100 for 30 min at RT. Cells were then incubated with terminal deoxynucleotidyl transferase buffer (0.25 U/μl terminal transferase), 6 μM biotinylated dUTP, pH 7.5)) (all from Roche, Basel, Switzerland) for 1 h at 37° C. in a humidified chamber, and then rinsed in TB buffer (300 mM NaCl and 30 mM sodium citrate) for 15 min and in PBS for 5 min. Incubation with Fluorescein was performed for 1 h and nuclei counterstaining and mounting were performed as described previously.
Fluorescence images were recorded using an LSM 510 Meta confocal microscope or an Axioskop 2 Plus fluorescence microscope (both from Carl Zeiss). In all experiments, measurements were performed in the border of SVZ neurospheres where migrating cells form a cell monolayer. […] Percentages of TUNEL or BrdU immunoreactive cells in SVZ cell cultures were calculated from cell counts in five independent microscopic fields in each coverslip with a x40 objective (approximately 200 cells per field). […] For SCCl experiments, the percentage of oligodendrocytic-like responding cells (with a Thromb/Hist ratio above 1.3) was calculated on the basis of one microscopic field per coverslip, containing approximately 100 cells (magnification, ×40).
The effect of Hp on cell death was evaluated after 48 hours of treatment with Hp.

The subject of series [3] is SVZ cells. The experiment in a line: SVZ neurosphere forming assay (primary neurospheres). The procedure: Neurosphere forming and self-renewal assays were performed on SVZ cells seeded at clonal density, 2500 cells per well in 24-well cell culture plates in SFM containing 5 ng/ml EGF and 2.5 ng/ml FGF-2 and supplemented or not (control) with 1 μM Hp or 50 ng.ml^−1 hepatocyte growth factor (carrier free recombinant human HGF, R&D Systems, Lille, France). After 6 days, the numbers of primary neurospheres were determined. For self-renewal assay, neurospheres were collected, dissociated as single cells and seeded in SFM containing 5 ng/ml EGF and 2.5 ng/ml FGF-2 in 24 well plates. After 6 days, the number of secondary neurospheres was counted.
Fluorescence images were recorded using an LSM 510 Meta confocal microscope or an Axioskop 2 Plus fluorescence microscope (both from Carl Zeiss). In all experiments, measurements were performed in the border of SVZ neurospheres where migrating cells form a cell monolayer. For the SVZ neurosphere forming and self-renewal assays the experiments were replicated in five independent culture preparations and each experimental condition was assayed in four different coverslips. For the remaining experiments, each condition was assayed in three different coverslips, and except where otherwise specified, the experiments were replicated in three independent culture preparations. Percentages of TUNEL or BrdU immunoreactive cells in SVZ cell cultures were calculated from cell counts in five independent microscopic fields in each coverslip with a x40 objective (approximately 200 cells per field). Software used was Axiovision, release 4.6 (Carl Zeiss). For SCCl experiments, the percentage of oligodendrocytic-like responding cells (with a Thromb/Hist ratio above 1.3) was calculated on the basis of one microscopic field per coverslip, containing approximately 100 cells (magnification, ×40).
Neural stem-like cells are characterized in vitro by both their capacity to give rise to neurospheres and to self-renew when cultured in the presence of mitogens.

Series [4] deals with Olig2. The series is described as follows: Immunocytochemistry for Olig2. The conditions noted are these: Hp treatment. The procedure:
Cells were fixed for 30 minutes in 4% paraformaldehyde in phosphate-buffered saline (PBS), permeabilized and blocked for non-specific binding sites for 1 h with 0.25% Triton X-100 (Sigma) and 3% bovine serum albumin (BSA, Sigma) dissolved in PBS. Cells were then subsequently incubated overnight at 4° C. with the following antibodies: rabbit polyclonal anti-CB1R (1:200, Proteimax), mouse monoclonal anti-nestin (1:200, Chemicon, Temecula, Calif., USA), mouse monoclonal anti-GFAP (1:500, Cell Signaling Technology, Danvers, Mass., USA) and rabbit polyclonal anti-Olig2 (1:200, Millipore, Billerica, Mass., USA). Thereafter, the cover slips were rinsed in PBS and incubated for 1 h at RT with the appropriate secondary antibodies: anti-rabbit IgG labeled with Alexa Fluor 488 (1:200) or anti-mouse IgG labeled with Alexa Fluor 594 (1:200) (both from Molecular Probes). After rinsing with PBS, cell preparations were incubated 5 min at RT with Hoechst 33342 (2 μg/mL, Molecular Probes) in PBS, for nuclear staining. Finally, the preparations were mounted using Dakocytomation fluorescent medium (Dakocytomation, Carpinteria, Calif., USA). Fluorescence images were recorded using a digital camera coupled to an Axioskop microscope (Carl Zeiss).

Regarding `CC(C)C[C@H](NC(=O)[C@H](Cc1ccccc1)NC(=O)[C@H](CCCCN)NC(=O)[C@H](Cc1ccccc1)NC(=O)[C@H](CC(N)=O)NC(=O)[C@@H](NC(=O)[C@@H]1CCCN1)C(C)C)C(=O)N[C@@H](CO)C(=O)N[C@@H](Cc1cnc[nH]1)C(=O)O` [Hp, PVNFKFLSH], the “percentage of BrdU-positive cells” value in series [1] (1 μM) was 4.70±0.53%; in series [1] (Hp 100 nM) it was 4.01±0.81%. Besides, in series [2] (48 hours of treatment), the “toxicity to the cells (TUNEL)” value is recorded as “not toxic to the cells”. Besides, the TUNEL-positive nuclei in series [2] (Hp 100 nM) worked out at 10.26±1.69; in series [2] (Hp 1 μM), 13.25±1.56%. Further, the “decrease of the number of primary neurospheres” value in series [3] (1 μm Hp during 6 days) was determined as 15%. Besides, the “number of primary neurospheres (control 100%)” value in series [3] (Hp 1 μM, 6 days, SFM with 5 ng/ml EGF and 2.5 ng/ml FGF-2) stood at 85.13±3.86%. The “number of Olig2-positive cells” value in series [4] is listed as “increased”.
